“Also recorded” adds a separate entry of the source. Marks after values point to notes of the source that are not given here.

We go through 3 compounds from patent US20070238749A1, “Alpha2delta ligands for the treatment of fibromyalgia and other disorders” (priority 2002, published 2007).

Data set [1] has as its system rats. The following applies: rat, in vivo, po, 6 mg/kg.
Data set [2] concerns rats. The experiment in a line: Adverse effects of amitriptyline seen in the rat allodynia study. The settings on record: 10 mg/kg PO dose (so in the source).
The test system of data set [3] is Male Sprague-Dawley rats. The experiment in a line: Acidic saline-induced allodynia (static allodynia, von Frey paw withdrawal threshold). The following applies: for Effect on allodynia / PWTs: 1, 2, or 3 hours posttreatment; for Paw withdrawal threshold, Day 1 / Paw withdrawal threshold, Baseline / Paw withdrawal threshold, 1 hr Post Rx / Paw withdrawal threshold, 2 hr Post Rx / Paw withdrawal threshold, 3 hr Post Rx / Static allodynia (paw withdrawal threshold), Day 1 / Static allodynia (paw withdrawal threshold), Baseline / Static allodynia (paw withdrawal threshold), 1 hr Post / Static allodynia (paw withdrawal threshold), 2 hr Post Rx / Static allodynia (paw withdrawal threshold), 3 hr Post Rx: mean; for Effect on static (mechanical) allodynia: tested 2 or 3 hours after drug treatment, 2 weeks after last acid saline injection.
Protocol: Sprague-Dawley male rats given an intramuscular (IM) injection of 100 μL sterile pyrogen-free saline, pH 4 in the gastrocnemius muscle on Days 1 and 5, develop chronic mechanical allodynia (static allodynia) approximately 1 week after the second injection. […] Evaluations were performed blinded, with the animals and treatments randomized. […] Allodynia was sustained for 3 weeks.
Food and water were available ad libidum and animals were maintained on a 12 hr/12 hr light/dark cycle, with testing during the light phase. On test days, rats were placed in a metal chamber on an elevated metal mesh floor and allowed to acclimate for at least 20 minutes. On Day 1, a baseline von Frey filament withdrawal threshold with the right hind paw was obtained. Later on Day 1, acidic saline, pH 4 (100 μL) was injected in the right gastrocnemius muscle and a similar injection was made again in the same location on Day 5. On subsequent days, pain responses (von Frey filament withdrawal threshold, withdrawal in response to light stroking with a cotton swab, and changes in weight bearing between the 2 hind paws) were determined for both hind paws. Experimental drug treatments were evaluated for inhibitory effects on static allodynia and other pain endpoints. Rats with a paw withdrawal threshold (PWT) of 6 g or less on the day of drug testing (Days 14 to 18) were used. Rats were evaluated for PWTs at 1, 2, and 3 hours after receiving either drug or vehicle treatments.
Pressure was applied to the plantar surface of a hind paw with a single slow application for up to 6 seconds to the plantar surface beginning with the 2.0-g filament. If no withdrawal was obtained, the next higher bending force filament was applied or, in the case of a withdrawal, the next lower force filament was applied. This continued until at least 6 responses were obtained, including at least 1 withdrawal. Withdrawal threshold at each time point (for each rat) then was determined using the Dixon, ‘Up-Down’ method.
Pharmacological Evaluations of Pregabalin in the Acidic Saline Induced Allodynia Model: Rats injected with acidic saline on Days 1 and 5 were evaluated for changes in pain responses on alternate days, beginning at Day 14, following the last acidic saline injection. On a given day, only rats showing allodynia (withdrawal in, response to von Frey filaments of 6 g or less) and naïve to previous drug treatments were used to evaluate test compounds. Pregabalin or vehicle (water) was given PO, 30 minutes after baseline paw withdrawal readings. Rats were evaluated at 1, 2, and 3 hours after drug or vehicle treatment.

In data set [4] the test system is patients with fibromyalgia. The data set is described as follows: 8-week double-blind placebo-controlled clinical study in patients with fibromyalgia. The format is in vivo, human. The protocol:
A clinical study of the effect of pregabalin on human patients with fibromyalgia was also conducted. This study was conducted to assess the efficacy of pregabalin (150, 300, and 450 mg/day) compared with placebo for the relief of pain and improvement in functional status in patients with fibromyalgia. Patients who participated in the study must have met the American College of Rheumatology criteria for fibromyalgia (widespread pain present for at least 3 months, and pain in at least 11 of 18 tender point sites).
Following a 1-week baseline phase, qualified patients were randomized to receive either 150, 300, or 450 mg/day pregabalin or placebo according to an 8-week, double-blind, multicenter study design. The intent-to-treat (ITT) population comprised a total of 529 patients: 132 patients received 450 mg/day, 134 received 300 mg/day, 132 received 150 mg/day pregabalin, and 131 received placebo. The first phase of the 8-week double-blind phase consisted of a 1-week titration phase. Patients randomized to the placebo, 150 and 300 mg/day pregabalin treatment groups started out at their fixed dose at Day 1. Patients randomized to 450 mg/day pregabalin treatment group started at 300 mg/day and titrated to the target dose of 450 mg/day on Day 4, and remained at the fixed dose for the remainder of the double-blind period. Following Week 8 of the double-blind phase, patients had the option of entering an open-label follow-on study (Protocol 1008-033).
The primary efficacy measurements were derived from the daily, self-assessed pain score from the patient diary. Secondary measures were derived from the SF-MPQ, Manual Tender Point Survey, quality of sleep score from the daily diary, Multidimensional Assessment of Fatigue (MAF), Clinical Global Impression of Change (CGIC) and Patient Global Impression of Change (PGIC), the SF-36 Health Survey (SF-36), Hospital Anxiety and Depression Scale (HADS), and Medical Outcomes Study (MOS) Sleep Scale.
All analyses were performed on the ITT population, defined as all randomized patients who received at least one dose of study medication.

As for `CN(C)CCC=C1c2ccccc2CCc2ccccc21` [Amitriptyline], the Tachycardia entry in data set [1] was “tachycardia was observed”. For the same compound, the Lethality entry in data set [2] is reported as “lethal in a fraction of rats”. In data set [3] (6 mg/kg PO), the Effect on allodynia entry was “without inhibitory effects on allodynia”. For the same compound, in data set [3] (6 mg/kg SC group, Day 1, before acid saline injection and before drug, N = 6/group), the “Static allodynia, Day 1” value is 24.44. For the same compound, the “Static allodynia, Baseline” value in data set [3] (6 mg/kg SC group, baseline 30 minutes before drug, N = 6/group) is 2.36. Also, the “Effect on allodynia / PWTs” value in data set [3] (6 mg/kg SC) was “did not alter PWTs”; in data set [3] (6 mg/kg SC, listed as amitryptiline), “did not alter allodynia”. Besides, the “Static allodynia, 1 hr Post Rx” value in data set [3] (6 mg/kg SC, 1 hr after treatment, N = 6/group) is listed as 12.01. The “Static allodynia, 2 hr Post Rx” value in data set [3] (6 mg/kg SC, 2 hr after treatment, N = 6/group) is given as 7.38. Moreover, in data set [3] (6 mg/kg SC, 3 hr after treatment, N = 6/group), the “Static allodynia, 3 hr Post Rx” value was determined as 7.20.

For the compound `CC(C)C[C@H](CN)CC(=O)O` [Pregabalin, (S)-3-(aminomethyl)-5-methylhexanoic acid], the “SF-36 Health Survey: Social Functioning, Bodily Pain, Vitality, and General Health Perception domains, compared to placebo” value in data set [4] (450 mg/day) is reported as “significant difference favoring 450 mg/day pregabalin”. In addition, the “Endpoint mean pain score (primary efficacy measure), compared to placebo” value in data set [4] (450 mg/day, ITT population) is “effective”; in data set [4] (450 mg/day, ITT population, listed as pregabalin) it was “significantly better”. The “Responder status (patients reporting at least 50% reduction in pain at endpoint compared to baseline)” value in data set [4] (450 mg/day, ITT population, placebo 13.2%, p=0.003) came out at 28.9%. Moreover, in data set [4] (450 mg/day, at Week 1 and continued through Week 7), the “Mean pain scores by week, compared to placebo” value is “significant difference from placebo”. Besides, the “Primary efficacy parameter (pain), compared to placebo” value in data set [4] (300 and 150 mg/day) is “no significant effect on pain”; in data set [4] (300 and 150 mg/day, listed as pregabalin) it was “not significantly different from placebo”. Besides, the “Secondary parameters compared to placebo” value in data set [4] (300 and 150 mg/day) is “significant differences in many of the secondary parameters”. The “Improvement in fatigue, clinician and patient global assessments of change, and sleep quality” value in data set [4] (300 and 450 mg/day treatment arms) is “superior to placebo”. Also, the Effect on allodynia entry in data set [3] (3 mg/kg PO) is on record as “without effect on allodynia”. For the same compound, the “Paw withdrawal threshold, Day 1” value in data set [3] (3 mg/kg PO group, Day 1, before acid saline injection and before drug, N = 6/group) came out at 27.37 grams; in data set [3] (10 mg/kg PO group, Day 1, before acid saline injection and before drug, N = 4/group), 24.90 grams; in data set [3] (30 mg/kg PO group, Day 1, before acid saline injection and before drug, N = 6/group), 26.07 grams. The “Paw withdrawal threshold, Baseline” value worked out at 5.32 grams in data set [3] (3 mg/kg PO group, baseline 30 minutes before drug, N = 6/group); 3.55 grams in data set [3] (10 mg/kg PO group, baseline 30 minutes before drug, N = 4/group); 4.74 grams in data set [3] (30 mg/kg PO group, baseline 30 minutes before drug, N = 6/group). Moreover, the “Paw withdrawal threshold, 1 hr Post Rx” value in data set [3] (3 mg/kg PO, 1 hr after treatment, N = 6/group) is given as 7.92 grams; in data set [3] (10 mg/kg PO, 1 hr after treatment, N = 4/group), 2.28 grams; in data set [3] (30 mg/kg PO, 1 hr after treatment, N = 6/group) it was 18.15 grams. Further, the “Paw withdrawal threshold, 2 hr Post Rx” value in data set [3] (3 mg/kg PO, 2 hr after treatment, N = 6/group) is on record as 4.53 grams; in data set [3] (10 mg/kg PO, 2 hr after treatment, N = 4/group) it was 28.84 ^b grams; in data set [3] (30 mg/kg PO, 2 hr after treatment, N = 6/group), 25.11 ^b grams. The “Paw withdrawal threshold, 3 hr Post Rx” value in data set [3] (3 mg/kg PO, 3 hr after treatment, N = 6/group) was 6.07 grams; in data set [3] (10 mg/kg PO, 3 hr after treatment, N = 4/group) it was 22.23 ^b grams; in data set [3] (30 mg/kg PO, 3 hr after treatment, N = 6/group), 23.74 ^b grams. The “Analgesic-like action compared with vehicle treatment” value in data set [3] (10 or 30 mg/kg PO, at 2 to 3 hours after therapy) is recorded as “significantly greater than vehicle treatment”. In addition, the “Effect on static (mechanical) allodynia” value in data set [3] (10 or 30 mg/kg PO) was “inhibited static allodynia; also recorded: reduced static allodynia”; in data set [3] (10 or 30 mg/kg PO, listed as pregabalin) it was “reversed mechanical allodynia”.

For the compound `CN1CC[C@]23c4c5ccc(O)c4O[C@H]2[C@@H](O)C=C[C@H]3[C@H]1C5` [Morphine], the “Static allodynia (paw withdrawal threshold), Day 1” value in data set [3] (3 mg/kg SC group, Day 1, before acid saline injection and before drug, n = 10) is on record as 24.27 grams; in data set [3] (10 mg/kg SC group, Day 1, before acid saline injection and before drug, n = 6), 26.63 grams. Besides, the “Static allodynia (paw withdrawal threshold), Baseline” value in data set [3] (3 mg/kg SC group, baseline 30 minutes before drug, n = 10) came to 2.89 grams; in data set [3] (10 mg/kg SC group, baseline 30 minutes before drug, n = 6), 3.09 grams. In addition, the “Effect on PWTs” value in data set [3] (3 mg/kg SC, 1 hour, not 2 or 3 hours, after treatment) is “increased PWTs, but only at 1 hour”. In addition, the “Static allodynia (paw withdrawal threshold), 1 hr Post” value in data set [3] (3 mg/kg SC, 1 hr after treatment, n = 10) is recorded as 20.52 ^b grams; in data set [3] (10 mg/kg SC, 1 hr after treatment, n = 6), 28.840 ^b grams. Further, the “Static allodynia (paw withdrawal threshold), 2 hr Post Rx” value in data set [3] (3 mg/kg SC, 2 hr after treatment, n = 10) is reported as 9.93 grams; in data set [3] (10 mg/kg SC, 2 hr after treatment, n = 6), 22.05 ^b grams. Further, the “Static allodynia (paw withdrawal threshold), 3 hr Post Rx” value came out at 7.09 grams in data set [3] (3 mg/kg SC, 3 hr after treatment, n = 10) and 16.91 grams in data set [3] (10 mg/kg SC, 3 hr after treatment, n = 6). In addition, the “Effect on static allodynia” value is “inhibited static allodynia” in data set [3] (10 mg/kg SC, at 1 and 2 hours after treatment); “reduced static allodynia” in data set [3] (3 and 10 mg/kg SC).
